Experimental data taken from PubChem BioAssay (NCI).
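Five concentrations, 48 hours, 96-well plates. The concentration for full growth arrest is given as TGI.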

How the values were obtained:
Experiment in all cases: NCI anticancer screen, dose series, 48 h
HOP-92 NSCLC = tested on: HOP-92 NSCLC
EKVX NSCLC = tested on: EKVX NSCLC
HCC-2998 colon = tested on: HCC-2998 colon
COLO 205 colon = tested on: COLO 205 colon
IGROV1 ovarian = tested on: IGROV1 ovarian
MOLT-4 leukemia = tested on: MOLT-4 leukemia
OVCAR-3 ovarian = tested on: OVCAR-3 ovarian
SW-620 colon = tested on: SW-620 colon
MDA-N = tested on: MDA-N
PC-3 prostate = tested on: PC-3 prostate
MALME-3M melanoma = tested on: MALME-3M melanoma
SN12C renal = tested on: SN12C renal
RPMI-8226 leukemia = tested on: RPMI-8226 leukemia
MDA-MB-231 breast = tested on: MDA-MB-231 breast
U251 CNS = tested on: U251 CNS
OVCAR-4 ovarian = tested on: OVCAR-4 ovarian
SK-MEL-2 melanoma = tested on: SK-MEL-2 melanoma
UACC-257 melanoma = tested on: UACC-257 melanoma
T-47D breast = tested on: T-47D breast
M14 melanoma = tested on: M14 melanoma
A549 NSCLC = tested on: A549 NSCLC
UACC-62 melanoma = tested on: UACC-62 melanoma
UO-31 renal = tested on: UO-31 renal
HS 578T breast = tested on: HS 578T breast
NCI-H460 lung = tested on: NCI-H460 lung
SR leukemia = tested on: SR leukemia
OVCAR-5 ovarian = tested on: OVCAR-5 ovarian
SK-MEL-5 melanoma = tested on: SK-MEL-5 melanoma
NCI-H23 lung = tested on: NCI-H23 lung
HCT-15 colon = tested on: HCT-15 colon
HOP-62 NSCLC = tested on: HOP-62 NSCLC
HT29 colon = tested on: HT29 colon
NCI-H226 lung = tested on: NCI-H226 lung
LOX IMVI melanoma = tested on: LOX IMVI melanoma
SF-268 CNS = tested on: SF-268 CNS
CAKI-1 renal = tested on: CAKI-1 renal
SK-MEL-28 melanoma = tested on: SK-MEL-28 melanoma
NCI-H522 lung = tested on: NCI-H522 lung
SK-OV-3 ovarian = tested on: SK-OV-3 ovarian
CCRF-CEM leukemia = tested on: CCRF-CEM leukemia
SNB-19 CNS = tested on: SNB-19 CNS
ACHN renal = tested on: ACHN renal
BT-549 breast = tested on: BT-549 breast
HCT-116 colon = tested on: HCT-116 colon
KM12 colon = tested on: KM12 colon
SF-295 CNS = tested on: SF-295 CNS
HL-60(TB) leukemia = tested on: HL-60(TB) leukemia
A498 renal = tested on: A498 renal
MDA-MB-435 = tested on: MDA-MB-435
K-562 leukemia = tested on: K-562 leukemia
DU-145 prostate = tested on: DU-145 prostate
TK-10 renal = tested on: TK-10 renal
SNB-75 CNS = tested on: SNB-75 CNS
786-0 renal = tested on: 786-0 renal
NCI/ADR-RES ovarian = tested on: NCI/ADR-RES ovarian
OVCAR-8 ovarian = tested on: OVCAR-8 ovarian
RXF 393 renal = tested on: RXF 393 renal

SMILES: Cc1cccc(/C=C2\CCCCCC2=O)c1
- TGI (HOP-92 NSCLC): > 100 µM
- TGI (EKVX NSCLC): > 100 µM
- TGI (HCC-2998 colon): > 100 µM
- TGI (COLO 205 colon): > 100 µM
- TGI (IGROV1 ovarian): > 100 µM
- TGI (MOLT-4 leukemia): > 100 µM
- TGI (OVCAR-3 ovarian): > 100 µM
- TGI (SW-620 colon): > 100 µM
- TGI (MDA-N): > 100 µM
- TGI (PC-3 prostate): > 100 µM
- TGI (MALME-3M melanoma): > 100 µM
- TGI (SN12C renal): > 100 µM
- TGI (RPMI-8226 leukemia): > 100 µM
- TGI (MDA-MB-231 breast): > 100 µM
- TGI (U251 CNS): > 100 µM
- TGI (OVCAR-4 ovarian): > 100 µM
- TGI (SK-MEL-2 melanoma): > 100 µM
- TGI (UACC-257 melanoma): > 100 µM
- TGI (T-47D breast): > 100 µM
- TGI (M14 melanoma): > 100 µM
- TGI (A549 NSCLC): > 100 µM
- TGI (UACC-62 melanoma): > 100 µM
- TGI (UO-31 renal): > 100 µM
- TGI (HS 578T breast): > 100 µM
- TGI (NCI-H460 lung): > 100 µM
- TGI (SR leukemia): > 100 µM
- TGI (OVCAR-5 ovarian): > 100 µM
- TGI (SK-MEL-5 melanoma): > 100 µM
- TGI (NCI-H23 lung): > 100 µM
- TGI (HCT-15 colon): > 100 µM
- TGI (HOP-62 NSCLC): > 100 µM
- TGI (HT29 colon): > 100 µM
- TGI (NCI-H226 lung): > 100 µM
- TGI (LOX IMVI melanoma): > 100 µM
- TGI (SF-268 CNS): > 100 µM
- TGI (CAKI-1 renal): > 100 µM
- TGI (SK-MEL-28 melanoma): > 100 µM
- TGI (NCI-H522 lung): > 100 µM
- TGI (SK-OV-3 ovarian): > 100 µM
- TGI (CCRF-CEM leukemia): 82.8 µM
- TGI (SNB-19 CNS): > 100 µM
- TGI (ACHN renal): > 100 µM
- TGI (BT-549 breast): > 100 µM
- TGI (HCT-116 colon): > 100 µM
- TGI (KM12 colon): > 100 µM
- TGI (SF-295 CNS): > 100 µM
- TGI (HL-60(TB) leukemia): > 100 µM
- TGI (A498 renal): > 100 µM
- TGI (MDA-MB-435): > 100 µM
- TGI (K-562 leukemia): > 100 µM
- TGI (DU-145 prostate): > 100 µM
- TGI (TK-10 renal): > 100 µM
- TGI (SNB-75 CNS): > 100 µM
- TGI (786-0 renal): > 100 µM

SMILES: CSc1nc(Cl)c2c(n1)Sc1nc3ccccc3n1N=C2
- TGI (HOP-92 NSCLC): 45.2 µM
- TGI (HCC-2998 colon): 60.9 µM
- TGI (COLO 205 colon): 57.5 µM
- TGI (IGROV1 ovarian): 36.7 µM
- TGI (MOLT-4 leukemia): 63.2 µM
- TGI (OVCAR-3 ovarian): 75.8 µM
- TGI (SW-620 colon): 29.3 µM
- TGI (MDA-N): 59.9 µM
- TGI (PC-3 prostate): 48 µM
- TGI (MALME-3M melanoma): 68.2 µM
- TGI (SN12C renal): > 100 µM
- TGI (RPMI-8226 leukemia): 60 µM
- TGI (NCI/ADR-RES ovarian): 55.1 µM
- TGI (MDA-MB-231 breast): 50.9 µM
- TGI (U251 CNS): > 100 µM
- TGI (OVCAR-4 ovarian): > 100 µM
- TGI (SK-MEL-2 melanoma): > 100 µM
- TGI (UACC-257 melanoma): > 100 µM
- TGI (T-47D breast): 57.2 µM
- TGI (M14 melanoma): 46.3 µM
- TGI (A549 NSCLC): > 100 µM
- TGI (UACC-62 melanoma): 84.3 µM
- TGI (UO-31 renal): 35.9 µM
- TGI (HS 578T breast): 62.1 µM
- TGI (NCI-H460 lung): > 100 µM
- TGI (OVCAR-5 ovarian): 97.2 µM
- TGI (SK-MEL-5 melanoma): 72.6 µM
- TGI (NCI-H23 lung): > 100 µM
- TGI (HCT-15 colon): 36.7 µM
- TGI (HOP-62 NSCLC): > 100 µM
- TGI (HT29 colon): 53.6 µM
- TGI (NCI-H226 lung): > 100 µM
- TGI (LOX IMVI melanoma): 33.5 µM
- TGI (SF-268 CNS): > 100 µM
- TGI (CAKI-1 renal): 72.5 µM
- TGI (SK-MEL-28 melanoma): > 100 µM
- TGI (NCI-H522 lung): 39.4 µM
- TGI (SK-OV-3 ovarian): > 100 µM
- TGI (CCRF-CEM leukemia): 46.2 µM
- TGI (SNB-19 CNS): > 100 µM
- TGI (ACHN renal): 58 µM
- TGI (OVCAR-8 ovarian): 36.4 µM
- TGI (BT-549 breast): 43.3 µM
- TGI (HCT-116 colon): > 100 µM
- TGI (KM12 colon): > 100 µM
- TGI (SF-295 CNS): > 100 µM
- TGI (A498 renal): > 100 µM
- TGI (MDA-MB-435): > 100 µM
- TGI (K-562 leukemia): 50 µM
- TGI (DU-145 prostate): > 100 µM
- TGI (RXF 393 renal): 43.4 µM
- TGI (TK-10 renal): > 100 µM
- TGI (SNB-75 CNS): 71.5 µM
- TGI (786-0 renal): 70.2 µM
